Measurements as given in patent publication US11331317B2, “Composition for treating vascular or cardiac valvular calcification, containing thiamine derivative” (KYUNGPOOK NATIONAL UNIVERSITY INDUSTRY-ACADEMIC COOPERATION …, priority 2018, dated 2022).

Assays:
[1] = system: vascular smooth muscle cells; experiment: Investigation of calcification of vascular smooth muscle cells (silver nitrate staining, optical microscope); assay type: cell-based, cattle; conditions: inorganic phosphate (Pi)-induced, 100 and 200 μM, cultured 10 days, FIG. 1
Method: The surrounding tissues were removed from the thoracoabdominal aorta isolated from male cattle, and endothelial cells that line blood vessels were removed. The cleaned blood vessels were divided into small fragments, which were then aligned on a culture dish containing Dulbecco's modified Eagle's medium (DMEM, Low Glucose, Thermo Fisher Scientific, USA) supplemented with 20% fetal bovine serum (FBS, Hyclone, Australia). Thereafter, culturing was performed in a cell incubator at 37° C. and 5% CO2 for 3-4 weeks. The vascular smooth muscle cells stretching out around the vascular tissues were subjected to primary culture with media changed every two days.
The vascular smooth muscle cells cultured in Preparation Example 1 above were stabilized by subculture in DMEM (high glucose) supplemented with penicillin/streptomycin antibiotics and 10% FBS. […]
After the induction of calcification by the method in Preparation Example 2 above, the media were removed from the culture dishes, followed by washing with phosphate buffer saline (PBS) three times. […] Thereafter, the cells were washed with primary distilled water two or three times, and then were determined for a degree of calcification through an optical microscope (BX53 microscope, Olympus, Japan).

[2] = system: vascular smooth muscle cells; experiment: Quantification of calcium in vascular smooth muscle cells; assay type: cell-based, cattle; conditions: inorganic phosphate-induced, 100 and 200 μM, corrected by protein amount, p<0.01 vs Vehicle, FIG. 2
Method: The surrounding tissues were removed from the thoracoabdominal aorta isolated from male cattle, and endothelial cells that line blood vessels were removed. The cleaned blood vessels were divided into small fragments, which were then aligned on a culture dish containing Dulbecco's modified Eagle's medium (DMEM, Low Glucose, Thermo Fisher Scientific, USA) supplemented with 20% fetal bovine serum (FBS, Hyclone, Australia). Thereafter, culturing was performed in a cell incubator at 37° C. and 5% CO2 for 3-4 weeks. The vascular smooth muscle cells stretching out around the vascular tissues were subjected to primary culture with media changed every two days. […]
After the induction of calcification by the method in Preparation Example 2 above, the media were removed from the culture dishes, followed by washing with PBS. Then, the cells were decalcified by treatment with 0.6 N HCl at 4° C. for 24 hours, The supernatant was recovered for the use in the quantification of calcium, and proteins were extracted from the cells by using 0.1 N NaOH/0.1% SDS, and quantified by using the BCA method. […]
(ODSAMPLE and ODBLANK represent the OD612nm values of calcium sample and blank (water), respectively; and the slope represents the inclination value on the measured absorbance graph)

C57BL/6J mice [3] = experiment: In vivo vitamin D3-induced vascular calcification, calcium quantification in aorta; conditions: FIG. 4
Text: (§1) C57BL/6J mice aged 8-9 weeks were grouped into 5 groups of 7 mice each, and four groups (one group being used as a control) underwent the induction of vascular calcification by subcutaneous administration of a high dose (9.0×10^5 IU) of vitamin D3 (Vit. D3) once a day for a total of 3 days.
Additionally, on the 10th day after the administration of vitamin D3, the mice were sacrificed and the abdomen was opened, and then the aorta was separated by cleanly removing surrounding tissues and frozen in liquid nitrogen. The frozen tissues were thawed, weighed after the removal of moisture, and then subjected to decalcification with a 0.6 N HCl solution. The colorimetric Ca quantification kit (Bioassay DICA-500) was used to quantify calcium in the 0.6 N HCl solution used in the decalcification, and the calcium quantification was corrected by using the tissue weight.

C57BL/6J mice [4] = experiment: In vivo vitamin D3-induced vascular calcification, Von Kossa staining of aorta; conditions: FIG. 3
Text: as §1
First, on the 10th day after the administration of vitamin D3, the mice were sacrificed and the abdomen was opened, and then the aorta was separated by cleanly removing surrounding tissues of the aorta, and fixed with 4% paraformaldehyde (PFA) for 24 hours. The fixed aorta was washed, immersed in a 5% silver nitrate solution, and incubated under UV light for 30 minutes.

| SMILES | calcification (black dots) [1] | calcium amount increased by inorganic phosphate [2] | amount of calcium in the aorta (C57BL/6J mice [3]; 10 mg/kg and 30 mg/kg oral once a day for 13 days, corrected by tissue weight) | degrees of decrease of calcium compared with the DCA group (positive control) (C57BL/6J mice [3]; 10 mg/kg and 30 mg/kg oral) | colored parts of aorta (Von Kossa staining) (C57BL/6J mice [4]; 10 mg/kg and 30 mg/kg oral once a day for 13 days) | degree of recovery compared with the DCA administration group (positive control) (C57BL/6J mice [4]; 30 mg/kg oral) |
| --- | --- | --- | --- | --- | --- | --- |
| CC(=C(CCO)SSCC1CCCO1)N(C=O)Cc1cnc(C)nc1N (stereo in doubt) [fursultiamine, thiamine tetrahydrofurfuryl disulfide] | inhibited | decreased | decreased dose-dependently | excellent | reduced (recovered) dose-dependently | excellent |
| C=CCSS/C(CCO)=C(/C)N(C=O)Cc1cnc(C)nc1N [allithiamine, thiamine allyl disulfide] | inhibited | decreased | – | – | – | – |
